In patent publication US8383554B2, “Quantitative microarray of intact glycolipid CD1d interaction and correlation with cell-based cytokine production” (Academia Sinica, priority 2008, dated 2013):
Entries after “also recorded” stand apart in the source; their conditions may differ. Where two headings read alike, the source gives them in different places.

Key:
[1] = biological target: T1, mCD1d:Ig fusion protein (CD1d) (Mus musculus, UniProt P11609); experiment: Competitive binding assay on microarray (Ki in solution); settings: for binding to CD1d in competition assay (in words): relative to α-GalCer or parent compound; for Ki: competition against surface compound 1, CD1d ~100-200 nM
T1 construct: purchased BD Bioscience
T1 sequence (P11609 22-305 limits assumed): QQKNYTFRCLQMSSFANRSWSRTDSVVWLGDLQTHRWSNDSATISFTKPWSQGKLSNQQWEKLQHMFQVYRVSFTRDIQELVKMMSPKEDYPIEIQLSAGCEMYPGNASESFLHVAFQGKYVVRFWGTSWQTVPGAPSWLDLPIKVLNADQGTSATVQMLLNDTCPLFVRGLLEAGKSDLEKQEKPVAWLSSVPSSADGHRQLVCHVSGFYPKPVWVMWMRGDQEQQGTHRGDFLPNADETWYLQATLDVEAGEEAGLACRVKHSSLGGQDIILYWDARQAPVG
T1 sequence (P01887 21-119 partner): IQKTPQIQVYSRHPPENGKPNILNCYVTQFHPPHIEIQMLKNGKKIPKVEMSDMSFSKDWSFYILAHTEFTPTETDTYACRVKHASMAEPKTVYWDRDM
Source text: Determination of Ki. The solution equilibrium dissociation constant (Ki) for glycolipid-CD1d interactions can be determined using microarrays in a competitive assay. The equation that describes the binding of the two ligands to the same site on the protein is identical to that for the competitive inhibition of an enzyme-catalyzed reaction. It is possible to take advantage of the convenience of IC50 measurements and still report inhibitory potency in terms of true Ki values. The final forms of the relationship can be expressed as
In this assay, the concentration of the protein is kept constant at or near the KD, surf (˜100-200 nM of CD1d). The glass slide is incubated with solutions containing varying concentrations of the glycolipid (covering about two orders of magnitude) and the protein.
Microarray Fabrication. Microarrays were printed (Genomic Solutions, Gene Machine) by robotic pin (SMP2B, TeleChem International Inc.). Approximately […] of various concentrations of amine-containing compounds 1-4 in DMSO were deposited onto slides from a 384 well plate. The slide for: (1) the scope of printing concentration studies: NHS-coated glass slides were printed with compounds 1-4 at 20 different concentrations (1000, 800, 600, 400, 200, 100, 80, 60, 40, 20, 10, 8, 6, 4, 2, 1, 0.8, 0.6, 0.4, 0.2 μM) from right to left with 10 replicates vertically placed in each sub-array. Six identical sub-arrays were fabricated in a 1×6 pattern and each sub-array consisted of a 20×10 pattern of spots, with a 0.3 mm pitch. After 2 h, the surface of the slide was divided by permanent marker to avoid contamination for later protein incubation; (2) the slide for FIG. 2 was printed with compound 1 with concentrations of 1000 (left most column), 900, 800, 700, 600, 500, 400, 300, 200, 100, 80, 60, 40, 20, 10, 5 μM (right-most column, 16 different conc.) with 16 replicates vertically placed in each grid, and totally 16 replicate (8×2 pattern) sub-arrays in one slide; (3) the slides for Ki determinations: the slides were printed of compound 1 with concentration of 1000, 900, 800 μM from right to left 81 replicates placed in each grid (9×9 pattern) and totally 44 sub-arrays replicates (4×11 pattern, each subarray is approximately 5 mm (width)×6 mm (length) area) in one slide. After 24 hours reaction, the slides were washed with PBST buffer (0.05% Tween 20) for 30 min and then blocked with blocking solution (super-block blocking buffer in PBS, Pierce) for another 1 h. The slides were dried under a flow of argon gas and stored at room temperature in a desiccator. The slides were washed with PBS buffer (pH 7.4) before use.
Competitive Binding Assay. Solutions of the competitors at different concentration (400 to 0.1 μM) were prepared and 5 μl aliquots incubated with protein (5 μl, 100˜250 nM). The mixture was then placed in a 384 well microtiter plate, covered, and left for five to eight hours. An aliquot of this solution (8 μL) was loaded onto the slides and incubated for 1 hour under a humidifying container at room temperature. The following procedure is the same as above the direct binding assay in washing procedure and applying secondary antibody. To get the data, Each inhibitor was assayed under this system at least three times and average Ki values are reported.
Data analysis. Extraction of spot intensity data was performed using ArrayVision 8.0 (Applied Precision). The background, calculated as the median of pixel intensities from the local area around each spot, was subtracted from the mean pixel intensity within each spot. To graphically represent the data, the values of the background-subtracted signal intensities were plotted against the known concentration of the protein spotted in the array, using the commercial non-linear regression program GraphPad PRISM 4 (GraphPad, San Diego). The values obtained from the competition assay were plotted against the known concentrations of the competitors applied on the slide. […]

[2] = tested on: human Vα24+ NKT cell line co-cultured with Hela cells transfected with human CD1d; experiment: Cytokine secretion assay using human NKT cell lines, IFN-γ by ELISA; assay type: cell-based; settings: 10 ng/ml glycolipid, 24 hours; for IFN-γ secretion (in words): relative to α-GalCer
Description: Generation of Vα24+ human NKT cell lines. Human NKT cell lines, expressing the Vα24+ T cell receptor (TCR), were generated as follows: Vα24+ T cells and CD14+ cells were isolated from leukopaks using magnetic beads (Miltenyi biotec, Auburn, Calif.) coupled to an anti-Vα24+ TCR monoclonal antibody and an anti-CD14 monoclonal antibody, respectively. Immature dendritic cells were generated from the CD14+ cells after a three-day incubation in the presence of 300 U/ml GM-CSF (R&D systems, Minneapolis, Minn.) and 100 U/ml IL-4 (R&D systems, Minneapolis, Minn.). Following irradiation with 3000 rads, the immature dendritic cells were co-cultured with syngeneic Vα24+ T cells in the presence of 100 ng/ml of α-galactosylceramide and 10 IU/ml of IL-2 (R&D systems, Minneapolis, Minn.) for 10 days.
Cytokine Secretion Assay using human NKT cell lines. Twenty-thousand cells of a human NKT cell line and 2×10^4 Hela cells transfected with human CD1d that had been irradiated for 10,000 rads, were co-cultured in the presence of 10 ng/ml of each glycolipid in a 96-well plate. After culture for 24 hours, the concentration of IFN-γ or IL-4 in the culture supernatants was determined by ELISA (BD Pharmingen, San Diego, Calif.).

[3] = Water solubility of glycolipids; assay type: physicochemical
[4] = biological target: CD1d; settings: read-out: dissociation constant from ITC; cited from earlier work
[5] = biological target: CD1d; settings: read-out: dissociation constant from IEF; cited from earlier work

Row | SMILES | binding to CD1d in competition assay (in words) [1] | selectivity IFN-γ vs IL-4 (in words) [2] | IFN-γ secretion (in words) [2] | also measured
1 | CCCCCCCCCCCCCC[C@@H](O)[C@@H](O)[C@H](CO[C@H]1O[C@H](CO)[C@H](O)[C@H](O)[C@H]1O)NC(=O)CCCCCCc1ccccc1 [Compound 12] | about one order of magnitude stronger with CD1d than α-GalCer |  |  | 
2 | CCCCCCCCCCCCCC[C@@H](O)[C@@H](O)[C@H](CO[C@H]1O[C@H](CO)[C@H](O)[C@H](O)[C@H]1O)NC(=O)CCCCCCCCCCCCCCc1ccccc1 [Compound 17] | weaker affinities to CD1d | low selectivity between IFN-γ and IL-4 | less IFN-γ production | 
3 | CCCCCCCCCCCCCC[C@@H](O)[C@@H](O)[C@H](CO[C@H]1O[C@H](CO)[C@H](O)[C@H](O)[C@H]1O)NC(=O)CCCCCCCc1ccccc1 [Compound 13] | about one order of magnitude stronger with CD1d than α-GalCer |  | peak IFN-γ secretions among the spacer chain elongation in acyl modification (11-17) | 
4 | CCCCCCCCCCCCCC[C@@H](O)[C@@H](O)[C@H](CO[C@H]1O[C@H](CO)[C@H](O)[C@H](O)[C@H]1O)NC(=O)CCCCCCCc1ccc(OC)cc1 [Compound 19] |  |  | highest IFN-γ cytokine production, more than double that of the α-GalCer induced IFN-γ secretion | 
5 | CCCCCCCCCCCCCC[C@@H](O)[C@@H](O)[C@H](CO[C@H]1O[C@H](CO)[C@H](O)[C@H](O)[C@H]1O)NC(=O)CCCCCCCCCCc1ccccc1 [Compound 16] | about one order of magnitude stronger with CD1d than α-GalCer |  |  | 
6 | CCCCCCCCCCCCCC[C@@H](O)[C@@H](O)[C@H](CO[C@H]1O[C@H](CO)[C@H](O)[C@H](O)[C@H]1O)NC(=O)CCCCCCCCCCc1ccc(-c2ccccc2)cc1 [Compound 25] | lower binding activity |  |  | 
7 | CCCCCCCCCCCCCCCCCCCCCCCCCC(=O)N[C@@H](CO[C@H]1O[C@H](CO)[C@H](O)[C@H](O)[C@H]1O)[C@H](O)[C@H](O)CCc1ccccc1 [Compound 26] | weaker agonist of mCD1d |  |  | 
8 | CCCCCCCCCCCCCC[C@@H](O)[C@@H](O)[C@H](CO[C@H]1O[C@H](CO)[C@H](O)[C@H](O)[C@H]1O)NC(=O)CCCCCCCc1ccc(-c2ccccc2)cc1 [Compound 21] | lower binding activity; also recorded: weaker affinities to CD1d | low selectivity between IFN-γ and IL-4 | less IFN-γ production | 
9 | CCCCCCCCCCCCCCCCCCCCCCCCCC(=O)N[C@@H](CO[C@H]1O[C@H](CO)[C@H](O)[C@H](O)[C@H]1O)[C@H](O)[C@H](O)CCCCCCCCCCCCCC [α-GalCer, α-galactosyl ceramide] |  |  |  | solubility in aqueous solution (in words) [3]: low solubility; Kd [4]: 9.7 µM; Ki [1]: 14 µM; Kd [5]: 5.9 µM
10 | CCCCCCCCCCCCCC[C@@H](O)[C@@H](O)[C@H](CO[C@H]1O[C@H](CO)[C@H](O)[C@H](O)[C@H]1O)NC(=O)CCCCCCCc1ccc(F)cc1 [Compound 18] | bind most strongly to CD1d; also recorded: enhance the binding by approximately one order of magnitude, compared with parent compound 13 | more than three times more selective for IFN-γ release | induce the most IFN-γ secretions; also recorded: highest IFN-γ cytokine production, more than double that of the α-GalCer induced IFN-γ secretion | Ki [1]: 0.14 µM; binding to CD1d in competition assay (in words) ([1]; listed as para-fluoroheptaphenyl-modified α-GalCer): two orders of magnitude stronger than α-GalCer
